This note sets out measurements from BindingDB's records for doi:10.1128/aac.38.12.2827 (Merck Research Laboratories, 1995).

This test deals with Polymerase acidic protein (Influenza A virus (strain A/Puerto Rico/8/1934 H1N1), UniProt P03433). As to the kind of experiment: Inhibition of cap 1 ALMV primed Influenza transcriptase.
With `O=C(O)C(=O)Cc1nc2ccccc2s1`, the IC50 – broadly, the concentration needed to halve the response being measured – was greater than 500 µM.
For the compound `Cn1c(CC(=O)C(=O)O)nc2ccccc21`, the IC50 was greater than 500 µM.
Turning to `O=C(O)C(=O)CS(=O)(=O)c1ccccc1`, the IC50 is greater than 500 µM.
Next, `NC(=O)C(=O)CC(=O)C1CCCCC1`: greater than 500 µM; `O=C(O)C(=O)Cc1cc2ccccc2o1`: greater than 500 µM.
